Assay results published in patent publication US4409210A, “Antibiotic compound” (priority 1982, dated 1983).
Converted amounts (≈) assume the structure as drawn. Where two headings read alike, the source gives them in different places. *1 amine or outer side, *2 acyl side, *3 side chain or, on linkers, in order; H or OH if unused. Where a SMILES comes first, the peptide text is derived from it. Bridges are numbered along the chain shown (N, C = ends). [ ]: non-standard residue; d: D form. ξ: configuration not given here. X2 = CCCCCCCCCCCC(CC(=O)[*:1])O[*:2]; ξAsp(3ξ-OH) = NC(C(=O)O)C(O)C(=O)O; X1 = O=C(C1C(O)CCN1[*:1])[*:2]

Key:
E. coli NIHJ = test: Antibiotic sensitivity, paper disc-agar diffusion method; format: cell-based; parameters: key: S (sensitive); R (resistant); I (intermediate); conditions: nutrient agar, 2 day's incubation at 28° C., Difco discs, amount/disc per antibiotic
S. aureus 209P = test: as above; format: cell-based; parameters: key: S (sensitive); R (resistant); I (intermediate); conditions: nutrient agar, 2 day's incubation at 28° C., Difco discs, amount/disc per antibiotic
[1] = test system: Streptococcus pyogenes S-23; test: MIC, serial two-fold dilution method (aerobic); format: cell-based
[2] = test system: Streptococcus pyogenes Dick; test: MIC, serial two-fold dilution method (aerobic); format: cell-based; conditions: for MIC: read-out: minimum inhibitory concentration (MIC)
[3] = test system: Streptococcus pyogenes A9604; test: MIC, serial two-fold dilution method (aerobic); format: cell-based
[4] = test system: Streptococcus pneumoniae IID-Type-I; test: MIC, serial two-fold dilution method (aerobic); format: cell-based; conditions: for MIC: read-out: minimum inhibitory concentration (MIC)
[5] = test system: Streptococcus pneumoniae A9585; test: MIC, serial two-fold dilution method (aerobic); format: cell-based
[6] = test system: Streptococcus pneumoniae A15069; test: MIC, serial two-fold dilution method (aerobic); format: cell-based
[7] = test system: Neisseria gonorrhoeae A15112; test: MIC, serial two-fold dilution method (aerobic); format: cell-based
[8] = test system: Neisseria meningitidis A20048; test: MIC, serial two-fold dilution method (aerobic); format: cell-based
[9] = test system: Haemophilus influenzae A9729; test: MIC, serial two-fold dilution method (aerobic); format: cell-based
[10] = test system: Haemophilus influenzae A22481; test: MIC, serial two-fold dilution method (aerobic); format: cell-based
staphylococci = test: MIC summary, staphylococci; format: cell-based; conditions: against staphylococci
streptococci = test: MIC summary, streptococci; format: cell-based; conditions: against streptococci
Veillonella species = test: MIC summary, Veillonella; format: cell-based; conditions: gram-negative cocci
S. aureus Smith = test: Experimental infection of mice, PD50; format: in vivo; conditions: observed 5 days
S. aureus BX-1633 = format: in vivo, mice; conditions: Exp. Run No. C-1319, observed 5 days
S. pyogenes A20201 = test: Experimental infection of mice, PD50; format: in vivo; conditions: observed 5 days
C. perfringens A9635 = format: in vivo, mice; conditions: observed 5 days
[11] = test system: aerobic and anaerobic gram-positive pathogens; parameters: species or system mice; conditions: mouse
[12] = Streptococcus pyogenes Dick, GC medium, inoculum 10^6 CFU/ml
[13] = Streptococcus pneumoniae IID-Type-I, GC medium, inoculum 10^6 CFU/ml
[14] = Streptococcus pyogenes S-23, GC medium, inoculum 10^6 CFU/ml
[15] = Streptococcus pyogenes A9604, GC medium, inoculum 10^6 CFU/ml
[16] = Streptococcus pneumoniae A9585, GC medium, inoculum 10^6 CFU/ml
[17] = Streptococcus pneumoniae A15069, GC medium, inoculum 10^6 CFU/ml
[18] = Neisseria gonorrhoeae A15112, GC medium, inoculum 10^6 CFU/ml
[19] = Neisseria meningitidis A20048, GC medium, inoculum 10^6 CFU/ml
[20] = Haemophilus influenzae A9729, GC medium, inoculum 10^6 CFU/ml
[21] = Haemophilus influenzae A22481, GC medium, inoculum 10^6 CFU/ml
[22] = Exp. Run No. C-1247, 1.3 × 10^6 cell/mouse, 350 × LD50, im just before challenge
[23] = Exp. Run No. C-1312, 1.3 × 10^6 cell/mouse, 200 × LD50, im just before challenge
[24] = Exp. Run No. C-1313, 1.3 × 10^2 cell/mouse, 60 × LD50, im just before challenge
[25] = Exp. Run No. C-1318, 2.5 × 10^7 cell/mouse, 11 × LD50, im just before challenge

CC1(C)S[C@@H]2[C@H](NC(=O)[C@H](N)c3ccccc3)C(=O)N2[C@H]1C(=O)O [Ampicillin]
Sensitivity E. coli NIHJ (E. coli NIHJ): S | Sensitivity S. aureus 209P (S. aureus 209P): S | MIC ([1]; S23, Streptococcus pyogenes S-23, GC medium, inoculum 10^6 CFU/ml, read-out: minimum inhibitory concentration (MIC)): 0.013 µg/mL (≈ 0.0372 µM) | MIC [2, 12]: 0.013 µg/mL (≈ 0.0372 µM) | MIC ([3]; Streptococcus pyogenes A9604, GC medium, inoculum 10^6 CFU/ml, read-out: minimum inhibitory concentration (MIC)): 0.013 µg/mL (≈ 0.0372 µM) | MIC [4, 13]: 0.025 µg/mL (≈ 0.0715 µM) | MIC ([5]; Streptococcus pneumoniae A9585, GC medium, inoculum 10^6 CFU/ml, read-out: minimum inhibitory concentration (MIC)): 0.025 µg/mL (≈ 0.0715 µM) | MIC ([6]; Streptococcus pneumoniae A15069, GC medium, inoculum 10^6 CFU/ml, read-out: minimum inhibitory concentration (MIC)): 0.025 µg/mL (≈ 0.0715 µM) | MIC ([7]; Neisseria gonorrhoeae A15112, GC medium, inoculum 10^6 CFU/ml, read-out: minimum inhibitory concentration (MIC)): 0.4 µg/mL (≈ 1.14 µM) | MIC ([8]; Neisseria meningitidis A20048, GC medium, inoculum 10^6 CFU/ml, read-out: minimum inhibitory concentration (MIC)): 0.4 µg/mL (≈ 1.14 µM) | MIC ([9]; Haemophilus influenzae A9729, GC medium, inoculum 10^6 CFU/ml, read-out: minimum inhibitory concentration (MIC)): 0.8 µg/mL (≈ 2.29 µM) | MIC ([10]; Haemophilus influenzae A22481, GC medium, inoculum 10^6 CFU/ml, read-out: minimum inhibitory concentration (MIC)): 50 µg/mL (≈ 143 µM)

CC[C@H]1OC(=O)[C@H](C)[C@@H](O[C@H]2C[C@@](C)(OC)[C@@H](O)[C@H](C)O2)[C@H](C)[C@@H](O[C@@H]2O[C@H](C)C[C@H](N(C)C)[C@H]2O)[C@](C)(O)C[C@@H](C)C(=O)[C@H](C)[C@@H](O)[C@]1(C)O [Erythromycin]
Sensitivity E. coli NIHJ (E. coli NIHJ): R | Sensitivity S. aureus 209P (S. aureus 209P): S

CN[C@H](CC(C)C)C(=O)N[C@H]1C(=O)N[C@@H](CC(N)=O)C(=O)N[C@H]2C(=O)N[C@H]3C(=O)N[C@H](C(=O)N[C@H](C(=O)O)c4cc(O)cc(O)c4-c4cc3ccc4O)[C@H](O)c3ccc(c(Cl)c3)Oc3cc2cc(c3O[C@@H]2O[C@H](CO)[C@@H](O)[C@H](O)[C@H]2O[C@H]2C[C@](C)(N)[C@H](O)[C@H](C)O2)Oc2ccc(cc2Cl)[C@H]1O [Vancomycin]
MIC ([1]; Streptococcus pyogenes, S23, read-out: minimum inhibitory concentration (MIC)): 0.8 µg/mL (≈ 0.552 µM) | MIC ([2]; Streptococcus pyogenes): 0.8 µg/mL (≈ 0.552 µM) | MIC ([3]; Streptococcus pyogenes, A9604, read-out: minimum inhibitory concentration (MIC)): 0.4 µg/mL (≈ 0.276 µM) | MIC ([4]; Streptococcus pneumoniae): 0.8 µg/mL (≈ 0.552 µM) | MIC ([5]; Streptococcus pneumoniae, A9585, read-out: minimum inhibitory concentration (MIC)): 0.4 µg/mL (≈ 0.276 µM) | MIC ([6]; Streptococcus pneumoniae, A15069, read-out: minimum inhibitory concentration (MIC)): 0.4 µg/mL (≈ 0.276 µM) | MIC ([7]; Neisseria gonorrhoeae, A15112, read-out: minimum inhibitory concentration (MIC)): > 100 µg/mL | MIC ([8]; Neisseria meningitidis, A20048, read-out: minimum inhibitory concentration (MIC)): > 100 µg/mL | MIC ([9]; Haemophilus influenzae, A9729, read-out: minimum inhibitory concentration (MIC)): > 100 µg/mL | MIC ([10]; Haemophilus influenzae, A22481, read-out: minimum inhibitory concentration (MIC)): > 100 µg/mL

CCCCCCCCCCCC1CC(=O)N2CCCC2C(=O)NC(CO)C(=O)N2CCCC2C(=O)NC(CCCNC(=N)N)C(=O)NC(C(O)C(=O)O)C(=O)NC(CO)C(=O)N2CCC(O)C2C(=O)NC(C(O)C(=O)O)C(=O)O1 (stereo not drawn) [Bu-2517] (PSPR[ξAsp(3ξ-OH)]S[X1][ξAsp(3ξ-OH)]; linker N-C via X2; configuration not given here)
minimum inhibitory concentration (MIC) [1, 14]: 1.6 µg/mL (≈ 1.42 µM) | minimum inhibitory concentration (MIC) [2, 12]: 1.6 µg/mL (≈ 1.42 µM) | minimum inhibitory concentration (MIC) [3, 15]: 1.6 µg/mL (≈ 1.42 µM) | minimum inhibitory concentration (MIC) [4, 13]: 0.8 µg/mL (≈ 0.71 µM) | minimum inhibitory concentration (MIC) [5, 16]: 1.6 µg/mL (≈ 1.42 µM) | minimum inhibitory concentration (MIC) [6, 17]: 1.6 µg/mL (≈ 1.42 µM) | minimum inhibitory concentration (MIC) [7, 18]: > 100 µg/mL | minimum inhibitory concentration (MIC) [8, 19]: > 100 µg/mL | minimum inhibitory concentration (MIC) [9, 20]: > 100 µg/mL | minimum inhibitory concentration (MIC) [10, 21]: > 100 µg/mL | fold more active than amphomycin (staphylococci): 2-4 fold | fold more active than amphomycin (streptococci): 8-32 fold | inhibition of two strains of Veillonella species (Veillonella species): inhibited at low concentration | PD50 (mg/kg, im) (S. aureus Smith; [22]): 3.3 mg/kg | PD50 (mg/kg, im) (S. aureus Smith; [23]): 3.3 mg/kg | PD50 (mg/kg, im) (S. aureus BX-1633): 3.6 mg/kg | PD50 (mg/kg, im) (S. pyogenes A20201; Exp. Run No. C-1174, 1.3 × 10^2 cell/mouse, 30 × LD50, im just before challenge): 1.0 mg/kg | PD50 (mg/kg, im) (S. pyogenes A20201; [24]): 1.5 mg/kg | PD50 (mg/kg, im) (C. perfringens A9635; Exp. Run No. C-1175, 2.5 × 10^7 cell/mouse, 18 × LD50, im just before challenge): 5.5 mg/kg | PD50 (mg/kg, im) (C. perfringens A9635; [25]): 6.8 mg/kg | in vivo activity relative to the potency of amphomycin [11]: equal to up to three times | pH range in which aqueous solution forms a precipitate: 2.4-4.2

O=C(N[C@H](CO)[C@H](O)c1ccc([N+](=O)[O-])cc1)C(Cl)Cl [Chloramphenicol]
Sensitivity E. coli NIHJ (E. coli NIHJ): S | Sensitivity S. aureus 209P (S. aureus 209P): S

Amphomycin
minimum inhibitory concentration (MIC) [1, 14]: 12.5 µg/mL | minimum inhibitory concentration (MIC) [2, 12]: 12.5 µg/mL | minimum inhibitory concentration (MIC) [3, 15]: 12.5 µg/mL | minimum inhibitory concentration (MIC) [4, 13]: 25 µg/mL | minimum inhibitory concentration (MIC) [5, 16]: 25 µg/mL | minimum inhibitory concentration (MIC) [6, 17]: 25 µg/mL | minimum inhibitory concentration (MIC) [7, 18]: > 100 µg/mL | minimum inhibitory concentration (MIC) [8, 19]: > 100 µg/mL | minimum inhibitory concentration (MIC) [9, 20]: > 100 µg/mL | minimum inhibitory concentration (MIC) [10, 21]: > 100 µg/mL | PD50 (mg/kg, im) (S. aureus Smith; [22]): 9.0 mg/kg | PD50 (mg/kg, im) (S. aureus Smith; [23]): 3.3 mg/kg | PD50 (mg/kg, im) (S. aureus BX-1633): 4.4 mg/kg | PD50 (mg/kg, im) (S. pyogenes A20201; [24]): 3.5 mg/kg | PD50 (mg/kg, im) (C. perfringens A9635; [25]): 7.4 mg/kg
